Tested on: acute GVHD in F1 hybrid BN/Lew rats
Assay: GVHD animal experiment: irradiated rats after transplantation of bone marrow cells and T lymphocytes
Type: in vivo
Conditions: methotrexate-albumin 2 mg/kg i.p. day 0, 4, 8, 12, MTX at equieffective doses
Source text: Animal experiments: (authorization No. LVL M-V310-4/7221.3-1.2-015/03 Landesveterinäramt Mecklenburg-Vorpommern Rostock)
Dr. M. Freund in Rostock University clinic under the direction of PD Dr G. Hartung and Dr D. Wolff. These entailed 20 female F1 hybrid BN/Lew rats receiving whole-body irradiation with 7.5 Gy (n=10) or 9 Gy (n=10) and then transplantation of 40 million bone marrow cells and 15 million T lymphocytes from female Lew rats.

Compound: CN(Cc1cnc2nc(N)nc(N)c2n1)c1ccc(C(=O)N[C@@H](CCC(=O)O)C(=O)O)cc1 [MTX, 4-amino-4-deoxy-10-methylfolic acid]
- side effects: distinct side effect
